The target in this assay is T1, human Itk kinase (Homo sapiens, UniProt Q08881).
T1 sequence (Q08881 1-620): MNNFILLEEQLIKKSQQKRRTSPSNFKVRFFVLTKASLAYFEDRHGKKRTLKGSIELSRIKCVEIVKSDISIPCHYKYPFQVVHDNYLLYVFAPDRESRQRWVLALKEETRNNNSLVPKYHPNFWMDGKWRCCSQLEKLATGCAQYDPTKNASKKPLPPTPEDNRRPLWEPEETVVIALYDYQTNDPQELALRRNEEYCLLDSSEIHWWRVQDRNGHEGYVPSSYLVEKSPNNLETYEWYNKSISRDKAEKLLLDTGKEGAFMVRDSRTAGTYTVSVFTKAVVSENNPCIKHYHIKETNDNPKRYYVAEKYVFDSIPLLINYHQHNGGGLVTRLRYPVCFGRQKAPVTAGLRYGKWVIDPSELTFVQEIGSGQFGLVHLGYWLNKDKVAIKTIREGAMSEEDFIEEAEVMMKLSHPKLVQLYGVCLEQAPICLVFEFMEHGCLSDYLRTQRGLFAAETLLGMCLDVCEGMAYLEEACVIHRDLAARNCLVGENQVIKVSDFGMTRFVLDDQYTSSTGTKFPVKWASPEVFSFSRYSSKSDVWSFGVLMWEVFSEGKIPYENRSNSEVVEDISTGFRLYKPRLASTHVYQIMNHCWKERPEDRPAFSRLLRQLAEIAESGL
The assay can be described thus: Itk inhibition assay (radioactivity-based or spectrophotometric coupled enzyme assay). It counts as biochemical. On the procedure:
The compounds of the present invention can be evaluated as inhibitors of human Itk kinase using either a radioactivity-based or spectrophotometric assay. In general, compounds of the invention, including the compound in Table 1, are effective for the inhibition of ITK. Specifically, compound I.1 has a Ki value of <2 uM.
Assays are carried out in a mixture of 100 mM HEPES (pH 7.5), 10 mM MgCl2, 25 mM NaCl, 0.01% BSA and 1 mM DTT. Final substrate concentrations are 15 μM [γ-^33P]ATP (400 μCi ^33P ATP/μmol ATP, Amersham Pharmacia Biotech/Sigma Chemicals) and 2 μM peptide (SAM68 protein Δ332-443). Assays are carried out at 25° C. in the presence of 30 nM Itk. An assay stock buffer solution is prepared containing all of the reagents listed above, with the exception of ATP and the test compound of interest. […]
IC50 data are calculated from non-linear regression analysis of the initial rate data using the Prism software package (GraphPad Prism version 3.0cx for Macintosh, GraphPad Software, San Diego Calif., USA). […]
Ki(app) data are calculated from non-linear regression analysis of the initial rate data using the Prism software package (GraphPad Prism version 3.0cx for Macintosh, GraphPad Software, San Diego Calif., USA). […]

For one compound, Ki results are on record in patent US7691885B2, “Pyridones useful as inhibitors of kinases” (Vertex Pharmaceuticals Incorporated, priority 2005, dated 2010).

Where only a bound is given, the exact number is not on record here.

As for `O=c1[nH]cc(-c2ccccc2)cc1-c1cc2ccccc2[nH]1` [Compound I.1, 3-(1H-indol-2-yl)-5-phenylpyridin-2(1H)-one], the Ki – broadly, the equilibrium dissociation constant of an inhibitor or competing ligand from its target – was under 2 µM.
